Assay results reported in US20110200545A1, “DEODORANT COMPOSITION AND METHODS FOR USE THEREOF” (priority 2010, published 2011).

What was measured:
[1] = pH of acidic solution of the substance by itself; assay type: physicochemical; settings: used by itself, unbuffered
skin = assay: application to skin, detrimental skin effects; assay type: in vivo
Text: The low pKa results in an acidic solution having a pH of about 1.9, which damages skin and results in skin peeling in the hours and/or days following application to skin.
The pH of skin is about 5.5. When the pH of the skin surface is less than about 3.8, skin peeling results. Additionally, side effects of skin adjusted to a pH of less than about 3.8 include: skin inflammation, dermatitis, itching, and/or sensitizing of the skin.

pH of acidic solution [1]: about 1.9
effect on skin (skin; used by itself, hours and/or days following application to skin): acts as a skin peeler
SMILES: CC(=O)Oc1ccccc1C(=O)O [acetylsalicyclic acid]
detrimental effects on skin (skin; in a composition having a pH of about 3.8 or less): an acid burn of the skin, inflammation, itching, sensitizing, dermatitis, and/or skin peeling
